Assay results: patent US7511041B2, “Fused azole-pyrimidine derivatives” (Bayer Pharmaceuticals Corporation, priority 2002, dated 2009)
Counter-ions that a name gives are not always drawn.

melting point | Compound
270 °C | Cl.O=C(NC1=Nc2c(cccc2C(F)(F)F)C2=NCCN12)c1ccc2[nH]cnc2c1 [Example 2-113]
> 300 °C | Cl.O/C(=C\C1=Nc2c(OCC3CC3)cccc2C2=NCCN12)c1cccnc1 [Example 1-89]
266 °C (dec.) | CN(C)c1cccc(C(=O)NC2=Nc3ccccc3C3=NCCN23)c1.Cl [Example 2-259]
> 300 °C | Cl.O/C(=C\C1=Nc2cc(N3CCOCC3)ccc2C2=NCCN12)c1cccnc1 [Example 1-95]
292 °C (dec.) | CSc1ccc(C(=O)NC2=Nc3ccccc3C3=NCCN23)cc1.Cl [Example 2-244]
298 °C | COc1ccc2c(c1Br)N=C(NC(=O)c1cccnc1)N1CCN=C21.Cl [Example 2-66]
> 300 °C | Cl.O=C(NC1=Nc2c(F)cccc2C2=NCCN12)c1ccc2[nH]cnc2c1 [Example 2-102]
282 °C | CCOC(=O)c1cc(C(=O)NC2=Nc3ccccc3C3=NCCN23)cc(C(=O)OCC)c1.Cl [Example 2-275]
227 °C | Cl.O=C(NC1=Nc2cc(OCC(=O)N3CCOCC3)ccc2C2=NCCN12)c1cccnc1 [Example 2-208]
205 °C (dec.) | COc1c(OCC(=O)N(C)C)ccc2c1N=C(/C=C(\O)c1cccnc1)N1CCN=C21.Cl [Example 1-28]
242 °C | Cl.O/C(=C\C1=Nc2cc(CN3CCOCC3)ccc2C2=NCCN12)c1cccnc1 [Example 1-112]
320 °C (dec.) | CS(=O)(=O)c1ccc(C(=O)NC2=Nc3ccccc3C3=NCCN23)cc1.Cl [Example 2-246]
270 °C (dec.) | COc1cc(OC)c2c(c1)C1=NCCN1C(NC(=O)c1ccc(NC(C)=O)nc1)=N2.Cl [Example 2-71]
310 °C (dec.) | Cc1ccc(C(=O)NC2=Nc3ccccc3C3=NCCN23)cn1.Cl [Example 2-148]
> 290 °C | Cc1cccc2c1N=C(/C=C(\O)c1cccnc1)N1CCN=C21.Cl [Example 1-76]
292 °C (dec.) | COc1ccc2c(c1)N=C(NC(=O)c1cccnc1)N1CCN=C21.Cl [Example 2-21]
324 °C (dec.) | Cl.O=C(NC1=Nc2ccccc2C2=NCCN12)c1ccc(-n2ccnc2)cc1 [Example 2-269]
> 290 °C | Cc1ccc2c(c1)C1=NCCN1C(/C=C(\O)c1cccnc1)=N2.Cl [Example 1-132]
> 300 °C | COc1ccc2c(c1)C1=NCCN1C(/C=C(\O)c1cccnc1)=N2.Cl [Example 1-127]
230 °C (dec.) | COc1cc2c(c(OC)c1C)N=C(NC(=O)c1cccnc1C)N1CCN=C21.Cl [Example 2-78]
276 °C | COc1cc2c(cc1OC)C1=NCCN1C(NC(=O)c1ccc3[nH]cnc3c1)=N2.Cl [Example 2-61]
335 °C (dec.) | Cl.O=C(NC1=Nc2ccccc2C2=NCCN12)c1csc(-c2ccncc2)n1 [Example 2-322]
249 °C (dec.) | Cl.O=C(NC1=Nc2cc(OCCO)ccc2C2=NCCN12)c1cccnc1 [Example 2-198]
297 °C (dec.) | Cl.O=C(NC1=Nc2ccccc2C2=NCCN12)c1ccsc1 [Example 2-184]

melting point | Compound
> 300 °C | COc1cc2c(cc1OC)C1=NCCN1C(/C=C(\O)c1cccnc1)=N2 (as salt: hydrochloride) [Example 1-2, (Z)-2-(8,9-Dimethoxy-2,3-dihydroimidazo[1,2-c]quinazolin-5-yl)-1-(3-pyridinyl)-ethenol hydrochloride]
> 300 °C | Cl.O/C(=C\C1=Nc2ccccc2C2=NCCN12)c1csc2ccccc12 [Example 1-181]
235 to 240 °C | Cl.O/C(=C\C1=Nc2ccccc2C2=NCCN12)c1ccccn1 [Example 1-174]
217 to 222 °C | Cl.O/C(=C\C1=Nc2ccccc2C2=NCCN12)c1cnccn1 [Example 1-142]
304 °C (dec.) | CN(C=O)c1ccc(C(=O)NC2=Nc3ccccc3C3=NCCN23)cc1.Cl [Example 2-264]
279 °C | COc1cc2c(cc1OC)C1=NCCN1C(NC(=O)c1ccc(NC(C)=O)nc1)=N2.Cl [Example 2-58]
285 °C | COc1cccc2c1N=C(/C=C(\O)c1cccnc1)N1CCN=C21.Cl [Example 1-69]
> 330 °C | Cc1ccc2c(c1)N=C(/C=C(\O)c1cccnc1)N1CCN=C21.Cl [Example 1-120]
270 °C | COc1c(C)ccc2c1N=C(/C=C(\O)c1ccc3[nH]cnc3c1)N1CCN=C21.Cl [Example 1-35]
289 °C (dec.) | COc1cc(OC)c2c(c1)C1=NCCN1C(NC(=O)c1ccc3[nH]cnc3c1)=N2.Cl [Example 2-73]
287 °C (dec.) | Cl.O=C(NC1=Nc2ccccc2C2=NCCN12)c1cnc2[nH]cnc2c1 [Example 2-173]
225 °C (dec.) | COc1cccc2c1N=C(NC(=O)c1cc3cccnc3nc1C(F)(F)F)N1CCN=C21.Cl [Example 2-129]
266 to 268 °C | COc1cc2c(cc1OC)C1=NCCN1C(/C=C(\O)c1cccs1)=N2.Cl [Example 1-59]
227 °C | CC(=O)Nc1ccc(C(=O)NC2=Nc3cc(N4CCOCC4)ccc3C3=NCCN23)cc1 [Example 2-15]
312 °C (dec.) | CC(=O)Nc1ccc(C(=O)NC2=Nc3ccccc3C3=NCCN23)cn1.Cl [Example 2-152]
288 °C (dec.) | COc1c(C)cc(C(=O)NC2=Nc3ccccc3C3=NCCN23)cc1C.Cl [Example 2-221]
316 °C | Cl.O=C(NC1=Nc2ccc(Br)cc2C2=NCCN12)c1cccnc1 [Example 2-88]
319 °C (dec.) | Cl.O=C(NC1=Nc2ccccc2C2=NCCN12)c1ccc(-n2cccn2)cc1 [Example 2-271]
260 °C (dec.) | COc1cc2c(cc1OC)C1=NCCN1C(NC(=O)c1cncc(O)c1)=N2.Cl [Example 2-55]
276 °C | Cc1ccc2c(c1)N=C(NC(=O)c1cccs1)N1CCN=C21.Cl [Example 2-32]
308 °C (dec.) | Cl.NS(=O)(=O)c1ccc(C(=O)NC2=Nc3ccccc3C3=NCCN23)cc1 [Example 2-248]
277 °C (dec.) | Cc1ncccc1C(=O)NC1=Nc2ccccc2C2=NCCN12.Cl [Example 2-132]
> 285 °C | CC(=O)Nc1ccc(/C(O)=C/C2=Nc3c(C)cccc3C3=NCCN23)cn1.Cl [Example 1-78]
270 °C | Cl.O=C(NC1=Nc2cc(Cl)ccc2C2=NCCN12)c1ccc2[nH]cnc2c1 [Example 2-40]

melting point | Compound
237 °C (dec.) | COc1cccc2c1N=C(NC(=O)c1cccnc1)N1CCN=C21.Cl [Example 2-115]
212 to 215 °C | COc1cc2c(cc1OC)C1=NCCN1C(/C=C(\O)c1ccc3[nH]cnc3c1)=N2 [Example 1-56]
210 °C (dec.) | COc1ccc2c(c1OC)N=C(NC(=O)c1cnc3[nH]cnc3c1)N1CCN=C21.Cl [Example 2-52]
> 285 °C | COc1cc2c(c(OC)c1C)N=C(/C=C(\O)c1ccc(NC(C)=O)nc1)N1CCN=C21.Cl [Example 1-65]
> 300 °C | Cc1ccc(/C(O)=C/C2=Nc3ccccc3C3=NCCN23)cn1.Cl [Example 1-137]
280 °C (dec.) | O/C(=C\C1=Nc2cc(Cl)ccc2C2=NCCN12)c1cccnc1 [Example 1-117]
285 °C | COc1cc2c(c(OC)c1C)N=C(/C=C(\O)c1cccnc1)N1CCN=C21.Cl [Example 1-63]
245 °C (dec.) | Cl.O/C(=C\C1=Nc2ccccc2C2=NCCN12)c1ccno1 [Example 1-153]
235 °C (dec.) | Cl.O/C(=C\C1=Nc2ccccc2C2=NCCN12)c1ccncc1 [Example 1-176]
261 to 262 °C | Cl.O/C(=C\C1=Nc2c(OCCN3CCOCC3)cccc2C2=NCCN12)c1cccnc1 [Example 1-85]
280 °C (dec.) | COc1cc2c(c(OC)c1C)N=C(NC(=O)c1ccc3[nH]cnc3c1)N1CCN=C21.Cl [Example 2-82]
291 °C (dec.) | Cc1ccncc1C(=O)NC1=Nc2ccccc2C2=NCCN12.Cl [Example 2-137]
272 °C (dec.) | COc1cncc(C(=O)NC2=Nc3ccccc3C3=NCCN23)c1.Cl [Example 2-141]
300 °C (dec.) | CNc1ccc(C(=O)NC2=Nc3ccccc3C3=NCCN23)cn1.Cl [Example 2-154]
246 °C | CC(=O)Nc1ccc(/C(O)=C/C2=Nc3cc(N4CCOCC4)ccc3C3=NCCN23)cn1.Cl [Example 1-97]
266 °C (dec.) | COc1cccc2c1N=C(NC(=O)c1cccnc1Cl)N1CCN=C21.Cl [Example 2-119]
280 °C (dec.) | CC(=O)Nc1ccc(/C(O)=C/C2=Nc3cc(N4CCN(C)CC4)ccc3C3=NCCN23)cn1.Cl [Example 1-106]
257 °C | O/C(=C\C1=Nc2cc(N3CCN(Cc4ccccc4)CC3)ccc2C2=NCCN12)c1cccnc1 [Example 1-103]
260 °C (dec.) | Cl.O/C(=C\C1=Nc2ccccc2C2=NCCN12)c1cccnc1 [Example 1-135]
309 to 310 °C | Cl.O=C(NC1=Nc2ccccc2C2=NCCN12)c1c[nH]cn1 [Example 2-194]
300 °C (dec.) | Cl.NS(=O)(=O)c1ccc(C(=O)NC2=Nc3ccccc3C3=NCCN23)c(Cl)c1 [Example 2-250]
259 °C (dec.) | Cl.O/C(=C\C1=Nc2c(CN3CCOCC3)cccc2C2=NCCN12)c1cccnc1 [Example 1-207]

Compound | melting point
COc1c(O)ccc2c1N=C(/C=C(\O)c1cccnc1)N1CCN=C21 (as salt: hydrochloride) [Example 1-4, 5-(2-Hydroxy-2-pyridin-3-ylvinyl)-7-methoxy-2,3-dihydroimidazo[1,2-c]quinazolin-8-ol hydrochloride] | 245 °C
O=C(NC1=Nc2ccccc2C2=NCCN12)c1cnccn1.O=C(O)C(F)(F)F [Example 2-293] | 234 °C (dec.)
Cc1cnc(C(=O)NC2=Nc3ccccc3C3=NCCN23)cn1.O=C(O)C(F)(F)F [Example 2-295] | 231 °C (dec.)
O=C(NC1=Nc2ccccc2C2=NCCN12)c1cccnc1 (as salt: hydrochloride) [Example 2-2, N-(2,3-Dihydroimidazo[1,2-c]quinazolin-5-yl)nicotinamide hydrochloride] | 289 °C (dec.)
